Test results from ChEMBL document CHEMBL1145156, “Identification of novel extracellular signal-regulated kinase docking domain inhibitors” (J Med Chem, 2005).

Legend:
[1] = molecular target: Mitogen-activated protein kinase 1 (Homo sapiens, UniProt P28482); assay: Dissociation constant for ERK2 kinase
HeLa = assay: Inhibitory concentration against HeLa cell colony formation; Range is 15-20 uM; type: functional, cell-based; details: Homo sapiens
A549 = assay: Inhibitory concentration against growth of A549 lung carcinoma cell; type: functional, cell-based; details: Homo sapiens

Sequence of Mitogen-activated protein kinase 1 (P28482 whole entry): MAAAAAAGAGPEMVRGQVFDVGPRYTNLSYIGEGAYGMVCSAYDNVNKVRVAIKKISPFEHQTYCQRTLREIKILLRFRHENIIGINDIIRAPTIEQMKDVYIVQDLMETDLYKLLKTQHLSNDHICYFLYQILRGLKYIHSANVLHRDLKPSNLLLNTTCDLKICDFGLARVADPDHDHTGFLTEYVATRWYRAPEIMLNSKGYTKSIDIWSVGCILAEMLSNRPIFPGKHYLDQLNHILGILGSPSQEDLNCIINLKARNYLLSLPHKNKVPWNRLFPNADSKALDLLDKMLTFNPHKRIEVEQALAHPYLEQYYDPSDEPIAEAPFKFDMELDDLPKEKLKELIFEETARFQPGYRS

| Structure (SMILES) | Kd [1] [µM] | IC50 (HeLa) [µM] | IC50 (A549) [µM] |
| --- | --- | --- | --- |
| O=C(CSc1nc2ccccc2o1)Nc1ccc(-n2cnnn2)cc1 | 5 | – | – |
| CCOc1ccc(/C=C2\SC(=O)N(CCN)C2=O)cc1 | 5 | 20 | 25 |
| O=C(CCN1CCN(C/C=C/c2ccccc2)CC1)Nc1ccc(Cl)cc1 | – | 20 | 15 |
